Measured values reported in patent publication US11649476B2, “Flow cytometry data processing for antimicrobial agent sensibility prediction” (priority 2016, dated 2023).

Tests used:
[1] = tested on: Enterobacteriaceae strains; assay: FCM analysis of Ceftazidime-treated strains (DiBAC4(3) marker), fluorescence distribution; assay type: cell-based; settings: 128 strains, 1, 2, 4 and 8 mg/L Ceftazidime; inferred from low performance of quantile models
Method: In a next step 22, liquid samples with different concentrations {C1, . . . , Cm} of the antibiotic are prepared for each of the selected strains Si, where C1=0 (no antibiotic) and m>2 is the number of non-null concentrations of antibiotic. Said concentrations are stored in the computer unit 14. […] After 2 h growth at 35° C. with shaking at 180 rpm, the resulting exponential phase bacterial culture is normalized at 0.5 McF and used to inoculate wells of a microtiterplate supplemented with antibiotics at the different concentrations {C1, . . . , Cm}. After 1 h of incubation at 35° C., a membrane depolarization fluorescent marker, for example (Bis-(1,3-Dibutylbarbituric Acid)Trimethine Oxonol), also known as “DiBAC4(3)”, is added to the wells at a final concentration of 0.5 μg/ml. An additional 15 min incubation with the marker is at 35° C. is then carried out. […]
In the step 24, a FCM acquisition is performed for each sample by means of the flow-cytometer 12 and the corresponding FSC, SSC and fluorescence distributions stored in the computer unit 14. For each strain Si, and for each concentration C1, a FSC distribution “FSCi,j”, a SSC distribution “SSCi,j” and a fluorescence distribution “FIi,j” are thus stored in the computer unit 14, e.g. in the form of digital vectors. […]

[2] = tested on: Enterobacteriaceae strains; assay: FCM fluorescence distribution profiles of Gentamicin-treated strains (DiBAC4(3) membrane depolarization marker); assay type: cell-based
Method: In a next step 22, liquid samples with different concentrations {C1, . . . , Cm} of the antibiotic are prepared for each of the selected strains Si, where C1=0 (no antibiotic) and m>2 is the number of non-null concentrations of antibiotic. Said concentrations are stored in the computer unit 14. […] After 2 h growth at 35° C. with shaking at 180 rpm, the resulting exponential phase bacterial culture is normalized at 0.5 McF and used to inoculate wells of a microtiterplate supplemented with antibiotics at the different concentrations {C1, . . . , Cm}. After 1 h of incubation at 35° C., a membrane depolarization fluorescent marker, for example (Bis-(1,3-Dibutylbarbituric Acid)Trimethine Oxonol), also known as “DiBAC4(3)”, is added to the wells at a final concentration of 0.5 μg/ml. An additional 15 min incubation with the marker is at 35° C. is then carried out. The concentrations {C1, . . . , Cm} are chosen such that the range [BPS, BPR] is included or equal to the range [C2, Cm] of non-null concentrations.
In the step 24, a FCM acquisition is performed for each sample by means of the flow-cytometer 12 and the corresponding FSC, SSC and fluorescence distributions stored in the computer unit 14. For each strain Si, and for each concentration C1, a FSC distribution “FSCi,j”, a SSC distribution “SSCi,j” and a fluorescence distribution “FIi,j” are thus stored in the computer unit 14, e.g. in the form of digital vectors.
The experiment was performed as described in the following lines: • A panel of 107 Enterobacteriaceae strains (FIG. 6: Distribution of the panel of strains according to their MICs for Gentamicin) were treated with 0, 2, 4 and 8 mg/L of Gentamicin following the protocol described in FIG. 3 and analyzed by FCM.

Compound | fluorescence distribution of treated strains [1] | fluorescence distribution profile vs untreated samples ([2]; intermediate phenotype strains, 2 mg/L Gentamicin) | fluorescence distribution profile vs untreated samples ([2]; intermediate phenotype strains, 4 and 8 mg/L Gentamicin) | resistant strains that did not show any shift in fluorescence (profile A) ([2]; resistant phenotype strains, all concentrations tested (2, 4, 8 mg/L)) | fluorescence distribution profile vs untreated samples ([2]; susceptible phenotype strains, 2 mg/L Gentamicin, panel of 107 strains, approximately evaluated) | fluorescence distribution profile vs untreated samples ([2]; susceptible phenotype strains, 4 and 8 mg/L Gentamicin, panel of 107 strains, approximately evaluated)
CC(C)(O/N=C(\C(=O)N[C@@H]1C(=O)N2C(C(=O)[O-])=C(C[n+]3ccccc3)CS[C@H]12)c1csc(N)n1)C(=O)O [Ceftazidime] | the majority of strains treated with Ceftazidime exhibit homogeneous distributions of fluorescence |  |  |  |  | 
Gentamicin |  | more strains showed no shift of fluorescence (profile A) | equal number of strains exhibited either no shift (profile A) or heterogeneous fluorescence distribution (profile B) | 36 out of 37 | equal number of strains exhibited either no shift (profile A) or heterogeneous fluorescence distributions (profile B) | the majority of strains exhibited an heterogeneous fluorescence distribution (profile B)
